In patent publication US8163909B2, “Substituted hydroxyethyl amine compounds as beta-secretase modulators and methods of use” (Amgen Inc., priority 2007, dated 2012):
pIC50: −log10 of the molar value. Where two headings read alike, the source gives them in different places.

Assays:
[1] = target: Beta Secretase enzyme (BACE) (Homo sapiens, UniProt P56817); experiment: In vitro enzymatic BACE FRET (fluorescence resonance energy transfer) assay; assay type: biochemical; conditions: read-out: BACE1 FRET assay (IC50);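 further: fluorescence read after 1 h with 50 nM quenched peptide substrate spanning the BACE cleavage site, in pH 4.2 acetate buffer containing 10% DMSO and nonionic detergent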
Sequence of Beta Secretase enzyme (BACE) (P56817 46-501): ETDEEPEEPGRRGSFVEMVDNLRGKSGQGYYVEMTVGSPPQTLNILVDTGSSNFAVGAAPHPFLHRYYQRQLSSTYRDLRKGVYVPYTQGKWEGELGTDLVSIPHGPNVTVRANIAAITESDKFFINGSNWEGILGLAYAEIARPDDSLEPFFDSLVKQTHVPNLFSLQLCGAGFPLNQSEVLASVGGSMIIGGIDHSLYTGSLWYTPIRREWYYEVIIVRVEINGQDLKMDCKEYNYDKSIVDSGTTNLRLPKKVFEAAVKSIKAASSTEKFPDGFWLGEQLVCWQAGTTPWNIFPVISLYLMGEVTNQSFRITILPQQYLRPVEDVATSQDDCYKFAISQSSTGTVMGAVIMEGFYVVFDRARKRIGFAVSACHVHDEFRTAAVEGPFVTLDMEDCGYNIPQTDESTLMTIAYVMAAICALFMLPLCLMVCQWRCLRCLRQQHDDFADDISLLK

[2] = test system: Aβ40 in conditioned medium of cells stably expressing Amyloid Precursor Protein (APP); experiment: In vitro BACE cell-based assay (Aβ40 in conditioned medium, sandwich ELISA); conditions: Homo sapiens, HEK293, HEK cells, cell-based assay; read-out: HEK cell assay (IC50);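 further: compounds added as a dilution series, secreted peptide quantified by europium time-resolved fluorescence readout, potency fitted from percent of control versus compound concentration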

CC(=O)N[C@@H](Cc1ccc(F)cc1)[C@H](O)CN[C@H]1CC2(CCC2)C(F)(F)c2ncc(CC(C)(C)C)cc21 [compound 165]
pIC50 ([1]; BACE enzyme assay): 6.97
pIC50 [2]: 6.96

COCC(=O)N[C@@H](Cc1ccnc(OCC(F)(F)F)c1)[C@H](O)CN[C@H]1CC2(CCC2)Oc2ncc(CC(C)(C)C)cc21 [compound 166]
pIC50 ([1]; BACE enzyme assay): 7.96
pIC50 [2]: 8.01

CC(=O)N[C@@H](Cc1ccc2c(c1)OCO2)[C@H](O)CN[C@H]1CC2(CCC2)Cc2ncc(CC(C)(C)C)cc21 [compound 167]
pIC50 ([1]; BACE enzyme assay): 6.90
pIC50 [2]: 7.17

COCC(=O)N[C@@H](Cc1ccc2c(c1)OCO2)[C@H](O)CN[C@H]1CC2(CCC2)Cc2ncc(CC(C)(C)C)cc21 [compound 168]
pIC50 ([1]; BACE enzyme assay): 6.83
pIC50 [2]: 6.68

CC(=O)N[C@@H](Cc1ccc2c(c1)OCO2)[C@H](O)CN[C@H]1CC2(CCC2)Oc2c(F)cc(CC(C)(C)C)cc21 [compound 170]
pIC50 ([1]; BACE enzyme assay): 7.90
pIC50 [2]: 7.27

CC(=O)N[C@@H](Cc1ccc(F)cc1)[C@H](O)CN[C@H]1CC2(CCC2)Oc2c(F)cc(CC(C)(C)C#N)cc21 [compound 171]
pIC50 ([1]; BACE enzyme assay): 7.80
pIC50 [2]: 7.55

COCC(=O)N[C@@H](Cc1ccc(F)cc1)[C@H](O)CN[C@H]1CC2(CCC2)Oc2c(F)cc(CC(C)(C)C#N)cc21 [compound 172]
pIC50 ([1]; BACE enzyme assay): 7.73
pIC50 [2]: 7.36

CO[C@@H](C)C(=O)N[C@@H](Cc1ccc(F)cc1)[C@H](O)CN[C@H]1CC2(CCC2)Oc2c(F)cc(CC(C)(C)C#N)cc21 [compound 173]
pIC50 ([1]; BACE enzyme assay): 7.44
pIC50 [2]: 7.26

CC(=O)N[C@@H](Cc1ccc(F)cc1)[C@H](O)CN[C@H]1CC2(CCC2)Oc2c(F)cc(CC(C)(C)C)cc21 [compound 174]
pIC50 ([1]; BACE enzyme assay): 8.14
pIC50 [2]: 7.28

CO[C@@H](C)C(=O)N[C@@H](Cc1ccc(F)cc1)[C@H](O)CN[C@H]1CC2(CCC2)Oc2c(F)cc(CC(C)(C)C)cc21 [compound 175]
pIC50 ([1]; BACE enzyme assay): 7.76
pIC50 [2]: 6.64

CC(=O)N[C@@H](Cc1ccc(F)c(F)c1)[C@H](O)CN[C@H]1CC2(CCC2)Oc2ncc([C@H](F)C(C)(C)C)cc21 [compound 177]
pIC50 ([1]; BACE enzyme assay): 8.66
pIC50 [2]: 8.03

CC(=O)N[C@@H](Cc1ccc2c(c1)OCO2)[C@H](O)CN[C@H]1CC2(CCC2)Oc2ncc(CC(C)(C)CF)cc21 [compound 178]
pIC50 ([1]; BACE enzyme assay): 8.08
pIC50 [2]: 7.76

COCC(=O)N[C@@H](Cc1ccc(F)cc1)[C@H](O)CN[C@H]1CC2(CCC2)Oc2ncc([C@H](F)C(C)(C)C)cc21 [compound 179]
pIC50 ([1]; BACE enzyme assay): 8.26
pIC50 [2]: 7.73

CC(=O)N[C@@H](Cc1ccccc1)[C@H](O)CN[C@H]1CC2(CCC2)Oc2ncc(CC(C)(C)CF)cc21 [compound 180]
pIC50 ([1]; BACE enzyme assay): 8.63
pIC50 [2]: 8.15

COCC(=O)N[C@@H](Cc1ccc2c(c1)OCO2)[C@H](O)CN[C@H]1CC2(CCC2)Oc2ncc(CC(C)(C)CF)cc21 [compound 181]
pIC50 ([1]; BACE enzyme assay): 7.81
pIC50 [2]: 7.76

CC(=O)N[C@@H](Cc1ccc2c(c1)OCO2)[C@H](O)CN[C@H]1CC2(CCC2)Oc2ncc([C@H](F)C(C)(C)C)cc21 [compound 182]
pIC50 ([1]; BACE enzyme assay): 8.15
pIC50 [2]: 7.80

COCC(=O)N[C@@H](Cc1ccc2c(c1)OCO2)[C@H](O)CN[C@H]1CC2(CCC2)Oc2ncc([C@H](F)C(C)(C)C)cc21 [compound 183]
pIC50 ([1]; BACE enzyme assay): 8.06
pIC50 [2]: 7.75

COCC(=O)N[C@@H](Cc1ccccc1)[C@H](O)CN[C@H]1CC2(CCC2)Oc2ncc(CC(C)(C)CF)cc21 [compound 184]
pIC50 ([1]; BACE enzyme assay): 8.61
pIC50 [2]: 8.19

CC(C)(C)[C@@H](F)c1cnc2c(c1)[C@@H](NC[C@@H](O)[C@H](Cc1ccc3c(c1)OCO3)NC(=O)CF)CC1(CCC1)O2 [compound 185]
pIC50 ([1]; BACE enzyme assay): 7.73
pIC50 [2]: 7.58

CO[C@H](C)C(=O)N[C@@H](Cc1ccc(F)cc1)[C@H](O)CN[C@H]1CC2(CCC2)Oc2ncc([C@H](F)C(C)(C)C)cc21 [compound 186]
pIC50 ([1]; BACE enzyme FRET assay): 8.11
pIC50 [2]: 7.58

COCC(=O)N[C@@H](Cc1ccc2c(c1)OCO2)[C@H](O)CN[C@H]1CC(C)(C)Cc2sc(CC(C)(C)C)cc21 [compound 187]
pIC50 ([1]; BACE enzyme FRET assay): 7.70
pIC50 [2]: 7.20

COCC(=O)N[C@@H](Cc1ccc(F)cc1)[C@H](O)CN[C@H]1CC2(CCC2)Oc2ncc([C@H](O)C(C)(C)C)cc21 [compound 188]
pIC50 ([1]; BACE enzyme FRET assay): 7.21
pIC50 [2]: 5.78

COCC(=O)N[C@@H](Cc1ccc(F)cc1)[C@H](O)CN[C@H]1CC2(CCC2)Oc2ncc([C@@H](O)C(C)(C)C)cc21 [compound 189]
pIC50 ([1]; BACE enzyme FRET assay): 6.06
pIC50 [2]: 6.00

CO[C@H](C)C(=O)N[C@@H](Cc1ccc2c(c1)OCO2)[C@H](O)CN[C@H]1CC2(CCC2)Oc2ncc(CC(C)(C)CF)cc21 [compound 190]
pIC50 ([1]; BACE enzyme FRET assay): 7.62
pIC50 [2]: 7.36

COCC(=O)N[C@@H](Cc1ccc(F)cc1)[C@H](O)CN[C@H]1CC2(CCC2)Oc2ncc(CCC(F)(F)F)cc21 [compound 193]
pIC50 ([1]; BACE enzyme FRET assay): 6.70
pIC50 [2]: 6.29

CO[C@H](C)C(=O)N[C@@H](Cc1ccc2c(c1)OCO2)[C@H](O)CN[C@H]1CC2(CCC2)Oc2ncc(CCC(F)(F)F)cc21 [compound 194]
pIC50 ([1]; BACE enzyme FRET assay): 5.97
pIC50 [2]: 5.82

COCC(=O)N[C@@H](Cc1ccc2c(c1)OCO2)[C@H](O)CN[C@H]1CC2(CCC2)Oc2ncc(CCC(F)(F)F)cc21 [compound 195]
pIC50 ([1]; BACE enzyme FRET assay): 6.12
pIC50 [2]: 6.21

COCC(=O)N[C@@H](Cc1ccc2c(c1)OCO2)[C@@H](CN[C@H]1CC2(CCC2)Oc2ncc([C@H](F)C(C)(C)C)cc21)OC [compound 196]
pIC50 ([1]; BACE enzyme FRET assay): 5.58
pIC50 [2]: 5.40

COCCC(=O)N[C@@H](Cc1ccc2c(c1)OCO2)[C@H](O)CN[C@H]1CC2(CCC2)Oc2ncc(CC(C)(C)C)cc21 [compound 197]
pIC50 ([1]; BACE enzyme FRET assay): 7.68
pIC50 [2]: 7.66

CC(=O)NC(Cc1ccc(F)cc1)C(O)CNC1CC2(CCC2)Oc2ncc(CC(C)C(F)F)cc21 [compound 198, N-((1S,2R)-3-(((4′S)-6′-((2S)-3,3-difluoro-2-methylpropyl)-3′4′-dihydrospiro[cyclobutane-1,2′-pyrano[2,3-b]pyridin]-4′-yl)amino)-1-((4-fluorophenyl)methyl)-2-hydroxypropyl)acetamide]
pIC50 ([1]; BACE enzyme FRET assay): 7.54
pIC50 [2]: 7.49

CC(=O)N[C@@H](Cc1ccc(F)cc1)[C@H](O)CN[C@H]1CC2(CCC2)Oc2ncc(C[C@@H](C)C(F)F)cc21 [compound 199]
pIC50 ([1]; BACE enzyme FRET assay): 7.35
pIC50 [2]: 7.23

CC(=O)N[C@@H](Cc1ccc(F)cc1)[C@H](O)CN[C@H]1CC2(CCC2)Oc2ccc(CC(C)(C)F)cc21 [compound 200]
pIC50 ([1]; BACE enzyme FRET assay): 6.69
pIC50 [2]: 6.43

CC(=O)N[C@@H](Cc1cccc(F)c1)[C@H](O)CN[C@H]1CC2(CCC2)Oc2ccc(CC(C)(C)F)cc21 [compound 201, N-((1S,2R)-3-(((4S)-6-(2-fluoro-2-methylpropyl)-3,4-dihydrospiro[chromene-2,1′-cyclobutan]-4-yl)amino)-1-((3-fluorophenyl)methyl)-2-hydroxypropyl)acetamide]
pIC50 ([1]; BACE enzyme FRET assay): 7.70
pIC50 [2]: 7.11

CC(=O)N[C@@H](Cc1ccccc1)[C@H](O)CN[C@H]1CC2(CCC2)Oc2ncc(CC3CC3)cc21 [compound 202]
pIC50 ([1]; BACE enzyme FRET assay): 7.47
pIC50 [2]: 7.18

CC(=O)N[C@@H](Cc1cc(Br)c2c(c1)OCO2)[C@H](O)CN[C@H]1CC2(CCC2)Oc2ncc(CC(C)(C)C)cc21 [compound 203]
pIC50 ([1]; BACE enzyme FRET assay): 8.55
pIC50 [2]: 7.68

COCC(=O)N[C@@H](Cc1cc(Br)c2c(c1)OCO2)[C@H](O)CN[C@H]1CC2(CCC2)Oc2ncc(CC(C)(C)C)cc21 [compound 204]
pIC50 ([1]; BACE enzyme FRET assay): 7.02
pIC50 [2]: 7.08

CC(=O)N[C@@H](Cc1ccc2c(c1)OCCO2)[C@H](O)CN[C@H]1CC2(CCC2)Oc2ncc(CC(C)(C)C)cc21 [compound 205]
pIC50 ([1]; BACE enzyme FRET assay): 7.64
pIC50 [2]: 7.64

COCC(=O)N[C@@H](Cc1ccc2c(c1)OCCO2)[C@H](O)CN[C@H]1CC2(CCC2)Oc2ncc(CC(C)(C)C)cc21 [compound 206]
pIC50 ([1]; BACE enzyme FRET assay): 7.64
pIC50 [2]: 7.37

CC(=O)N[C@@H](Cc1cc(Cl)c2c(c1)OCO2)[C@H](O)CN[C@H]1CC2(CCC2)Oc2ncc(CC(C)(C)C)cc21 [compound 207]
pIC50 ([1]; BACE enzyme FRET assay): 8.18
pIC50 [2]: 7.85

COCC(=O)N[C@@H](Cc1cc(Cl)c2c(c1)OCO2)[C@H](O)CN[C@H]1CC2(CCC2)Oc2ncc(CC(C)(C)C)cc21 [compound 208]
pIC50 ([1]; BACE enzyme FRET assay): 8.19
pIC50 [2]: 8.00

CO[C@H](C)C(=O)N[C@@H](Cc1cc(Cl)c2c(c1)OCO2)[C@H](O)CN[C@H]1CC2(CCC2)Oc2ncc(CC(C)(C)C)cc21 [compound 209]
pIC50 ([1]; BACE enzyme FRET assay): 7.91
pIC50 [2]: 7.74

CO[C@H](C)C(=O)N[C@@H](Cc1cc(Br)c2c(c1)OCO2)[C@H](O)CN[C@H]1CC2(CCC2)Oc2ncc(CC(C)(C)C)cc21 [compound 210, (2R)—N-((1S,2R)-1-((7-bromo-1,3-benzodioxol-5-yl)methyl)-3-(((4′S)-6′-(2,2-dimethylpropyl)-3′,4′-dihydrospiro[cyclobutane-1,2′-pyrano[2,3-b]pyridin]-4′-yl)amino)-2-hydroxypropyl)-2-(methyloxy)propanamide]
pIC50 ([1]; BACE enzyme FRET assay): 6.79
pIC50 [2]: 6.65

COCC(=O)N[C@@H](Cc1cc(Br)c2c(c1)OCO2)[C@H](O)CN[C@H]1CC2(CCC2)Oc2ncc(CC(C)(C)F)cc21 [compound 211]
pIC50 ([1]; BACE enzyme FRET assay): 6.37
pIC50 [2]: 6.51

COCC(=O)N[C@@H](Cc1ccc(Cl)cc1)[C@H](O)CN[C@H]1CC2(CCC2)Oc2ncc(CC(C)(C)C)cc21 [compound 212]
pIC50 ([1]; BACE enzyme FRET assay): 8.67
pIC50 [2]: 7.50

COCC(=O)N[C@@H](CC1CC1)[C@H](O)CN[C@H]1CC2(CCC2)Oc2ncc(CC(C)(C)C)cc21 [compound 213]
pIC50 ([1]; BACE enzyme FRET assay): 7.24
pIC50 [2]: 7.10

COCC(=O)N[C@@H](Cc1ccc(F)c(OC(F)F)c1)[C@H](O)CN[C@H]1CC2(CCC2)Oc2ncc(CC(C)(C)C)cc21 [compound 214]
pIC50 ([1]; BACE enzyme FRET assay): 8.06
pIC50 [2]: 8.04

CC(=O)N[C@@H](Cc1ccc(F)c(Cl)c1)[C@H](O)CN[C@H]1CC2(CCC2)Oc2ncc(CC(C)(C)C(F)F)cc21 [compound 215]
pIC50 ([1]; BACE enzyme FRET assay): 8.15
pIC50 [2]: 7.58
